Experimental data from article PMC3701070 (PLoS ONE, 2013).
Like-named read-outs stand apart in the source and are kept apart here.

Experiments:
A375P tumor xenograft = conditions: groups of 8 mice, cited from earlier work
BRAF [1] = molecular target: BRAF (Macaca fascicularis, UniProt A0A7N9IA21); test: BRAF/CRAF-activated MEK ATPase coupled assay; format: biochemical; conditions: Enzyme BRAF, Cyno
Experimental: (§1) Various BRAF orthologs (human, cynomolgus monkey, dog, rat) were cloned in-house. […] Full-length BRAF genes were tagged with 6×His-SBP and transiently transfected in a HEK293F expression system (Invitrogen K9000-01 protocol). Transfected cells were incubated at 37°C, 5% CO2 on a shaker at 80 r.p.m. for 48 h and harvested by centrifugation. BRAF proteins were purified by UltraLink®-immobilized Streptavidin affinity and Superdex™ 200 size exclusion chromatography.
(§2) N-terminal GST-tagged MEK1 was expressed in BL21[DE3]/pRR692 cells and purified by Glutathione Sepharose™ 4FF and Q-Sepharose™ chromatography. The GST tag was cleaved with TEV protease and MEK1 was purified on a Superdex™ 200 column.

BRAF [2] = molecular target: T1, BRAF (Canis lupus familiaris, UniProt A0A8I3SCX1); test: BRAF/CRAF-activated MEK ATPase coupled assay; format: biochemical; conditions: Enzyme BRAF, Dog
T1 construct: Full-length BRAF genes were tagged with 6×His-SBP; 6xHis-SBP; made in house; host or cells: HEK293F
Experimental: as §1, §2

BRAF [3] = molecular target: T2, BRAF (Rattus norvegicus, UniProt A0A8I6AFV6); test: BRAF/CRAF-activated MEK ATPase coupled assay; format: biochemical; conditions: Enzyme BRAF
T2 construct: Full-length BRAF genes were tagged with 6×His-SBP; 6xHis-SBP; made in house; host or cells: HEK293F
Experimental: as §1, §2

[4] = system: A375P tumor xenografts (BRAF^V600E); test: Pharmacodynamic markers in A375P tumor xenografts; format: in vivo; conditions: A375P xenograft, mice, 30 mg/kg oral once daily
Experimental: Tumors were harvested, homogenized (BD Bioscience Medimachine) in 1 mL each of ice-cold Western Blot Analysis buffer containing 4 mM sodium pyrophosphate, then centrifuged (18 000×g, 15 min, 4°C), and flash-frozen. Samples were analyzed by duplex ELISA (MesoScale Discovery) for total and phospho ERK1/2 per the manufacturer’s instructions using an MSD SI6000 reader.
A375P tumors were harvested at 6 h after the sixth daily dose with compound or vehicle, cut into samples of ∼100 mm^3 in volume, fixed in 10% neutral-buffered formalin (NBF, VWR) for 24 h, and transferred into 70% ethanol prior to paraffin embedding. Paraffin-embedded blocks were sectioned (4 µm to 5 µm) and immunostained for ppERK, Ki67, and p27^Kip1 by Mosaic Laboratories (Lake Forest, CA).
Phospho-ERK (pERK) is normalized to total ERK (tERK). Tumors harvested 6h post-last 6th dose were stained for Ki67, p27, and ppERK by immunohistochemistry and compared with pre-treatment controls (B). Data are representative of n = 3 studies and percent changes were calculated from the ratio of positively stained cells following drug treatment to those following vehicle control treatment, each as a percentage of the total cell population.

[5] = system: Colo 205 tumor xenografts (BRAF^V600E); test: Colo 205 tumor xenograft growth; format: in vivo, mice
Description: The 14-day period of dosing is indicated by the shaded gray bar.

[6] = Pharmacokinetic analysis in tumor-bearing mice; conditions: 30 mg/kg oral once daily, blood
Experimental: Compound concentrations were determined from flash-frozen hemolyzed blood samples (blood:water ratio of 1∶1) or tumor homogenates (tumor:water ratio of 1∶4) by HPLC/MS-MS analysis.

SIK (h) = molecular target: T3, SIK (h) (Homo sapiens, UniProt P57059); test: Kinase panel (Millipore) enzyme activity; format: biochemical
T3 construct: purchased Millipore

[7] = system: Human Foreskin Fibroblasts (HFF, wild-type BRAF); test: Cell cycle analysis; format: cell-based; conditions: concentrations up to 10 µM
Experimental: (§3) Cells were permeabilized, DNA was stained with propidium iodide, and samples were read on a BD LSRII flow cytometer. Data were analyzed using the cell cycle platform of FlowJo v6.1.1 software.
(§4) Cell cycle phases are shown in stacked format as a percentage of the total population. […] (PPTX) Click here for additional data file.

[8] = system: A375P tumors (BRAF^V600E)
Description: Cells were implanted subcutaneously in female CD1 nu/nu mice and grown to form tumors. […] Tumor volumes were estimated twice weekly from two-dimensional caliper measurements using the prolate ellipsoid equation [drawing 1] , where v = volume (mm^3), l = length (mm), and w = width (mm), and reported as means for n of 7 or 8 mice per group. Tumor growth inhibition represents the percentage volume differential between treated and control tumors at the time when vehicle-treated tumors exceeded a volume of 1 000 mm^3. Partial regression is defined as a 50% decrease from an individual tumor's starting volume for at least 1 week (three consecutive measurements). […] All efforts were made to minimize suffering and mice were euthanized by carbon dioxide asphyxiation if at least one death occurred per treatment group, if an animal appeared moribund or in distress, or if the tumor became ulcerated.
Treatment continued until the mean tumor volume of each group reached 1 200 mm^3 or one death occurred. Mean tumor volumes are plotted with their standard error mean and complete (CR) or partial (PR) regressions are indicated for each group of n = 8 mice after 14 days of treatment.

NEK11 (h) = molecular target: T4, NEK11 (h) (Homo sapiens, UniProt Q8NG66); test: Kinase panel (Millipore) enzyme activity; format: biochemical
T4 construct: purchased Millipore

A375P cells [9] = test: Caspase-3/7 activation; format: cell-based, human; conditions: A375P (BRAF^V600E)
Experimental: (§5) At selected times, caspase-3/7 activity and cell density were determined using Caspase-Glo® (Promega) and CellTiter-Glo® reagents, respectively, using a PerkinElmer EnVision™ reader. Caspase activity was normalized to cell density and percent induction over the DMSO control was determined.
as §4

SK-MEL-28 cells [10] = test: Caspase-3/7 activation; format: cell-based, human; conditions: SK-MEL-28 (BRAF^V600E)
Experimental: as §5, §4

A375P cells [11] = test: Cell cycle analysis; format: cell-based, human; conditions: A375P (BRAF^V600E), 72-hour exposure
Experimental: as §3, §4

SK-MEL-28 cells [12] = test: Cell cycle analysis; format: cell-based, human; conditions: SK-MEL-28 (BRAF^V600E), 72-hour exposure
Experimental: as §3, §4

ALK5 (h) = ALK5 (h) (Homo sapiens, UniProt P36897); test: ALK5 binding assay
HCT-116 = test: Cell growth assay; format: cell-based, human; conditions: HCT-116, RAF WT, KRAS(G13D), 3-day
Experimental: Growth was measured with CellTiter-Glo® (Promega) reagent per the manufacturer’s protocol, using a PerkinElmer EnVision™ reader at t = 0 and 72 h. IC50 values for cell growth inhibition (gIC50) were determined.
(PDF) Click here for additional data file.

BRK (h) = molecular target: T5, BRK (h) (Homo sapiens, UniProt Q13882); test: Kinase panel (Millipore) enzyme activity; format: biochemical
T5 construct: purchased Millipore
T5 sequence (Q13882 whole entry): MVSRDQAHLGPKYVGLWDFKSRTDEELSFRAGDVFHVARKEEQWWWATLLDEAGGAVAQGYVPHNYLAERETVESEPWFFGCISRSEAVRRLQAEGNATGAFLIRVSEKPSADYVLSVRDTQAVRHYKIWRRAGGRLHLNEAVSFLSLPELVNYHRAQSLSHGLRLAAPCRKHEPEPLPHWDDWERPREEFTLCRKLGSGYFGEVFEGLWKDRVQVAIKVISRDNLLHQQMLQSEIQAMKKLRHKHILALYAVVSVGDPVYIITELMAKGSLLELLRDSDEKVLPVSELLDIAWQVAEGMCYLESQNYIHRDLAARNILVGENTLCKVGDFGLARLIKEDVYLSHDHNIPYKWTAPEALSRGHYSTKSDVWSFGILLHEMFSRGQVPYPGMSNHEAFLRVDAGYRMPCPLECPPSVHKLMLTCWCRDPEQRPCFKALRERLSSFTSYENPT

Sequence of BRAF (Macaca fascicularis, UniProt A0A7N9IA21) (A0A7N9IA21 entry or part of it): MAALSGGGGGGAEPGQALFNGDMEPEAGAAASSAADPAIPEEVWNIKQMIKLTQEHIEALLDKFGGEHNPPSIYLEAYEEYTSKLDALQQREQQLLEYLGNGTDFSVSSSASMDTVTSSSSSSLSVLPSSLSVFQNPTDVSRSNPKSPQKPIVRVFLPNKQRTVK
Sequence of ALK5 (h) (P36897 34-503): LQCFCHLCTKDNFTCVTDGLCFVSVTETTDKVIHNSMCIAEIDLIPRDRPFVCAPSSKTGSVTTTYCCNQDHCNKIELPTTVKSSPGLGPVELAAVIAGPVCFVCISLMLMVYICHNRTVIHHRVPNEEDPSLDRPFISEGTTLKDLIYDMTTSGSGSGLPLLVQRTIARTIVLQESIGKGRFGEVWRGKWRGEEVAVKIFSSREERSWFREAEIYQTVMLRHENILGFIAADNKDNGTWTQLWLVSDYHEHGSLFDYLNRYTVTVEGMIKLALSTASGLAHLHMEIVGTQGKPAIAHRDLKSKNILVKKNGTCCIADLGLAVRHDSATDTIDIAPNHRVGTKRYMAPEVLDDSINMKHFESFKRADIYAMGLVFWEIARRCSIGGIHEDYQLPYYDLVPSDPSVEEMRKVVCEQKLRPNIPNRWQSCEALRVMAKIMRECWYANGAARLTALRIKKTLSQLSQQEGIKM
T4 sequence (Q8NG66 whole entry): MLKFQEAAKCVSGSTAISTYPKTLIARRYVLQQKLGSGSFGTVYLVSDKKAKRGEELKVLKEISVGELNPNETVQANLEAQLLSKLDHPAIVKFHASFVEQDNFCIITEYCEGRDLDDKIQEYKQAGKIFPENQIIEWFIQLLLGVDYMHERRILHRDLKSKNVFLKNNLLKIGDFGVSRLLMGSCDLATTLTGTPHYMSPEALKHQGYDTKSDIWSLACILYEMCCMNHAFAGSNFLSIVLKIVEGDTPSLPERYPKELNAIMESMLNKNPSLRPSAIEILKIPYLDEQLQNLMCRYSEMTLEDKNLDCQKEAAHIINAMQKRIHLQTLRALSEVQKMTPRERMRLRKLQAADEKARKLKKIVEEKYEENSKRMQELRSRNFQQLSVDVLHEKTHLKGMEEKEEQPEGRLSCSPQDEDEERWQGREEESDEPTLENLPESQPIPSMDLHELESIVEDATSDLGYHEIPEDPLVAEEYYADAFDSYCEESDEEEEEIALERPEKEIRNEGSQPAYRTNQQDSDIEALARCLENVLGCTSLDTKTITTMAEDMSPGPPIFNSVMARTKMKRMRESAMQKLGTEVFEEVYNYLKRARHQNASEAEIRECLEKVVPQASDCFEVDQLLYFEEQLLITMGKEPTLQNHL
T3 sequence (P57059 whole entry): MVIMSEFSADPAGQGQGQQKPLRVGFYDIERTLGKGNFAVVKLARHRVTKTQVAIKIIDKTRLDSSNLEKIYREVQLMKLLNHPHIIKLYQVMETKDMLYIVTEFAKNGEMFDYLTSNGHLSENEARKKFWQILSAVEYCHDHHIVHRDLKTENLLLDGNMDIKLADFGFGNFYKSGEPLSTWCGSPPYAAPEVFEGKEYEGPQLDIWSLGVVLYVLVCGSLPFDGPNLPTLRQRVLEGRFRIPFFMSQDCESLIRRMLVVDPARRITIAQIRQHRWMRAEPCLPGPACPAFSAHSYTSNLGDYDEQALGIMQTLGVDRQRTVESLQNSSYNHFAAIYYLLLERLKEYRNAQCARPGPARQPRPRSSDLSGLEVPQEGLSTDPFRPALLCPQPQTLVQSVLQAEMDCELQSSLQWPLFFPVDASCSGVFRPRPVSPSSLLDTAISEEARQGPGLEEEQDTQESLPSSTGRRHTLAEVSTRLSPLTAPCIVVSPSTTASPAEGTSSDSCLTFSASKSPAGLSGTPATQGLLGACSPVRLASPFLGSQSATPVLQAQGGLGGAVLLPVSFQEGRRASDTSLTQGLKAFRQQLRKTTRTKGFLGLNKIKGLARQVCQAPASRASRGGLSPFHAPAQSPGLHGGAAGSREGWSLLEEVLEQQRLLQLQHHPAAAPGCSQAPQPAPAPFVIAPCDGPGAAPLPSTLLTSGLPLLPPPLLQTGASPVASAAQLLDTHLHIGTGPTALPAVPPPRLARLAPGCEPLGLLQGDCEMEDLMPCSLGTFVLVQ
T2 sequence (A0A8I6AFV6 1-804): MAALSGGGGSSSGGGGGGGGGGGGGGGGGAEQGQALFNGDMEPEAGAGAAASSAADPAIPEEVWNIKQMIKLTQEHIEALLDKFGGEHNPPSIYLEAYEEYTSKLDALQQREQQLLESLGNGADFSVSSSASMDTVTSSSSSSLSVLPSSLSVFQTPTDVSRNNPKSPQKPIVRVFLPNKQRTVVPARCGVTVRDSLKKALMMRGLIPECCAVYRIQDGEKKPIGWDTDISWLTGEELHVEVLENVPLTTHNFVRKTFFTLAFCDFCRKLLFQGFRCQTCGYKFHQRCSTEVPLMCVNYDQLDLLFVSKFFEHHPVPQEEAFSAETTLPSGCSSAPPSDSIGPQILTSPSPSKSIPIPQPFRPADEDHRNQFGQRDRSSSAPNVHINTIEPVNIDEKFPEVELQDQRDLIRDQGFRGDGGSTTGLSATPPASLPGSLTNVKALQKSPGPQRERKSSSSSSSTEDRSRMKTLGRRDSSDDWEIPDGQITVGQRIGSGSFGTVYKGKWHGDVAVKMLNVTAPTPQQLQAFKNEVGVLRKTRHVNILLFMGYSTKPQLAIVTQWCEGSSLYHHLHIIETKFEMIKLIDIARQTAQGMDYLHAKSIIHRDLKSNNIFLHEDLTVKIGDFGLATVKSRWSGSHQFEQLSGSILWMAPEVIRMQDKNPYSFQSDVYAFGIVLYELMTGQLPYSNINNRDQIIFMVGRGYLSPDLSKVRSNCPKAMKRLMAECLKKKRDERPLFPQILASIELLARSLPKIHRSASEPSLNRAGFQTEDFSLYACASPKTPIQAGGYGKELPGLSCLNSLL
T1 sequence (A0A8I3SCX1 1-803): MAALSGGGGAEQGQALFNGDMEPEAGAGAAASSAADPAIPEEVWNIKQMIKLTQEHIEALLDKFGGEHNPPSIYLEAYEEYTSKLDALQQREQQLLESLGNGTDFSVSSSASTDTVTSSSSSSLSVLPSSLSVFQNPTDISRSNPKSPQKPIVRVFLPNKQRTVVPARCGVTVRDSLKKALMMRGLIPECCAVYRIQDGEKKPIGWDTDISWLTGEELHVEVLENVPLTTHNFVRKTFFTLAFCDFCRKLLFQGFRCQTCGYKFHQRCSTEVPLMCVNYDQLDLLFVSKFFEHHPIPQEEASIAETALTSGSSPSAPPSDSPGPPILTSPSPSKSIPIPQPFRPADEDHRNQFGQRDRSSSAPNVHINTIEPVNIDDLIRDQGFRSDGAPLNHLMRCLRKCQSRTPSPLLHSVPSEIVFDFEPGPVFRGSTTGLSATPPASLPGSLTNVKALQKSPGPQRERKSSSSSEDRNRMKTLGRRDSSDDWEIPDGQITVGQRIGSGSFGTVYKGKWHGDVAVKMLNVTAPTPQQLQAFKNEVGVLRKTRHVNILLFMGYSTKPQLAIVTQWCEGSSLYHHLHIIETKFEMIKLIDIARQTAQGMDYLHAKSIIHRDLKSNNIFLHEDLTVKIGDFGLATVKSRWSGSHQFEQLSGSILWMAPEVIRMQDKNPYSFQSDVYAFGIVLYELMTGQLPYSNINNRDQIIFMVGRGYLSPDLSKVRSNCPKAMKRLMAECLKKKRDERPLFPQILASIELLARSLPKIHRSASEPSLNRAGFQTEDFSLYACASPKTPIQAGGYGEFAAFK

For `CC(C)(C)c1nc(-c2cccc(NS(=O)(=O)c3c(F)cccc3F)c2F)c(-c2ccnc(N)n2)s1` [dabrafenib], the complete regressions (A375P tumor xenograft; 10 mg/kg) is listed as 1, the partial regressions (A375P tumor xenograft; 10 mg/kg) is listed as 2 and the complete regressions (A375P tumor xenograft; 100 mg/kg) is listed as 4. The partial regressions (A375P tumor xenograft; 100 mg/kg) was 2, the IC50 (BRAF [1]; read-out: IC50) was 4 nM and the IC50 (BRAF [1]; read-out: pIC50 +/- std. dev. (converted)) was 3.98 nM. For the same molecule, the IC50 (BRAF [2]) was 4 nM, the IC50 (BRAF [3]) was 4 nM and the “downregulation of Ki67 in tumors, immunohistochemistry” value ([4]; 6 h after sixth dose) was 28%. The “downregulation of pERK (ppERK) in tumors, immunohistochemistry” value ([4]; 6 h after sixth dose) was 89%, the “upregulation of p27 in tumors, immunohistochemistry” value ([4]; 6 h after sixth dose) was 54% and the “time post-dosing for which reduction of tumor pERK is sustained” value ([4]; after 7 and 14 days of dosing) was “up to 18 h”. For the same molecule, the partial regressions ([5]; Colo 205 xenograft, 100 mg/kg oral q.d. x 14) was 4 of 8 mice, the “inhibition of tumor growth” value ([5]; Colo 205 xenograft, 3, 10, 30 and 100 mg/kg oral q.d. x 14) was “dose-dependent inhibition of tumor growth” and the oral bioavailability [6] was “orally bioavailable”. The IC50 (SIK (h)) was 27 nM, the “effect on cell cycle” value [7] was “unaffected” and the “period for which tumor growth inhibition was observed” value ([8]; 30 mg/kg for 33 days) was 14 days. For the same molecule, the “period for which tumor growth inhibition was observed” value ([8]; 300 mg/kg for 43 days) was 20 days, the IC50 (NEK11 (h)) was 20 nM and the “caspase-3/7 activation and apoptosis” value (A375P cells [9]) was “induced caspase-3/7 activation and apoptosis”. The “caspase-3/7 activation and apoptosis” value (SK-MEL-28 cells [10]) was “induced caspase-3/7 activation and apoptosis”, the “effect on cell cycle” value (A375P cells [11]) was “arrested the BRAF^V600E cells at the G1 (2n DNA) phase of the cell cycle” and the “effect on cell cycle” value (SK-MEL-28 cells [12]) was “arrested the BRAF^V600E cells at the G1 (2n DNA) phase of the cell cycle”. The IC50 (ALK5 (h)) was 11 nM, the gIC50 (HCT-116) was “insensitive” and the IC50 (HCT-116; Homo sapiens, 72 h, read-out: gIC50) was > 10000 nM. The IC50 (BRK (h)) was 79 nM.
